Paper PMC10709440, “High-throughput ligand profile characterization in novel cell lines expressing seven heterologous insect olfactory receptors for the detection of volatile plant biomarkers” (Scientific Reports, 2023)
Where two headings read alike, the source gives them in different places.

How the values were obtained:
Drosophila OR10a = target: T1, Drosophila OR10a (Drosophila melanogaster, UniProt Q9VYZ1); test: Calcium ion fluorescence (GCaMP6) assay, OR10a stable HEK293 cell line; type: cell-based
T1 construct: expressed in transfected cells
T1 sequence (Q9VYZ1 1-406): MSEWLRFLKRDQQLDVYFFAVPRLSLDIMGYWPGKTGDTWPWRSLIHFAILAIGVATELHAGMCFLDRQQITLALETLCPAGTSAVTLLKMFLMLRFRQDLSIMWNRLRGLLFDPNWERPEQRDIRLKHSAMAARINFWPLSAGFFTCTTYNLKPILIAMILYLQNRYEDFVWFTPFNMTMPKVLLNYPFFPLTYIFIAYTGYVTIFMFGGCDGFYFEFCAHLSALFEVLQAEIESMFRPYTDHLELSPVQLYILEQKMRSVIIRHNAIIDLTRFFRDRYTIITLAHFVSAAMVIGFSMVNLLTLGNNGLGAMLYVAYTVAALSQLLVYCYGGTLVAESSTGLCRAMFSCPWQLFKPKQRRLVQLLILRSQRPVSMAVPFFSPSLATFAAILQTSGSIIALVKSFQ
T1 sequence (Q9VNB5 1-486 partner): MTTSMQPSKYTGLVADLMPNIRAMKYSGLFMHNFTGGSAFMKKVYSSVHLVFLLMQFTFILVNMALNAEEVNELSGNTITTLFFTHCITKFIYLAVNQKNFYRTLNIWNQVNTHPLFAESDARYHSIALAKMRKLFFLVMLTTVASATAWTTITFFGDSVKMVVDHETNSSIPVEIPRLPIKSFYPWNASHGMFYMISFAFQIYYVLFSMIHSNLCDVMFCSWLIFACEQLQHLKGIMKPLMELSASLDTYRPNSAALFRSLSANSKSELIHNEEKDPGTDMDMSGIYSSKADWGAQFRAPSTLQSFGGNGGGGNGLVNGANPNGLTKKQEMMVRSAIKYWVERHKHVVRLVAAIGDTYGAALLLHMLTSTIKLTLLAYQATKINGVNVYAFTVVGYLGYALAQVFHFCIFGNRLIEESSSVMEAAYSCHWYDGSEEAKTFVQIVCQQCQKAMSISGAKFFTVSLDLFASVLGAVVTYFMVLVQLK
Method in brief: (§1)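 Responses are VUAA1-normalized ΔF: each VOC-evoked calcium signal, (FMAX−F0)/F0 over 30 s after injection, divided by the same line's mean 50 µM VUAA1 response. Cells were doxycycline-induced HEK293 with GCaMP6 and the cognate Drosophila OR, in HEPES buffer pH 7.3; ligands tested 0.01–100 μM.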

Drosophila OR85b = target: T2, Drosophila OR85b (Drosophila melanogaster, UniProt Q9VHQ7); test: Calcium ion fluorescence (GCaMP6) assay, OR85b stable HEK293 cell line; type: cell-based; settings: for activation at 1 µM / activation at 10 µM / activation at 100 µM: HEK293, read-out: OR85b response (VUAA1-normalized response); for Average response: OR85b cell line, VUAA1-normalized response, mean of biological replicates
T2 construct: expressed in transfected cells
T2 sequence (Q9VHQ7 1-390): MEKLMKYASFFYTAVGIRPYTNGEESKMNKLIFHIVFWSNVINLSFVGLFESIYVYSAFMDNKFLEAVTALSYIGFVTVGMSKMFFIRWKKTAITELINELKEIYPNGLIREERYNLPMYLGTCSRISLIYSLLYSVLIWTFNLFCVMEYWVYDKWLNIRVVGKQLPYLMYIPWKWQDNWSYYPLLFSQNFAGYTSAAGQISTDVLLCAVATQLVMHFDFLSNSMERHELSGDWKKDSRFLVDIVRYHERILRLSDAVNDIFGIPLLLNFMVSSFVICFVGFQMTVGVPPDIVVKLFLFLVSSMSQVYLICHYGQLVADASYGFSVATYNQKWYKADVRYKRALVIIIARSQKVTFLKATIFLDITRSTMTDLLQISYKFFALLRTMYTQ
T2 sequence (Q9VNB5 1-486 partner): T1 sequence (Q9VNB5 1-486 partner)
Method in brief: as §1

[1] = HEK293, 1 μM VOC, 50 μM VUAA1 = 1, responses not exceeding 0.05 considered 0, read-out: OR10a Average response (VUAA1-normalized)
[2] = HEK293, 10 μM VOC, 50 μM VUAA1 = 1, responses not exceeding 0.05 considered 0, read-out: OR10a Average response (VUAA1-normalized)
[3] = HEK293, 100 μM VOC, 50 μM VUAA1 = 1, responses not exceeding 0.05 considered 0, read-out: OR10a Average response (VUAA1-normalized)
[4] = HEK293, read-out: OR10a response (VUAA1-normalized response), VOC concentration 1 μM
[5] = HEK293, read-out: OR10a response (VUAA1-normalized response), VOC concentration 10 μM
[6] = HEK293, read-out: OR10a response (VUAA1-normalized response), VOC concentration 100 μM
[7] = concentration 1, normalized fluorescence change, values below 0.05 threshold given as 0
[8] = concentration 10, normalized fluorescence change, values below 0.05 threshold given as 0
[9] = concentration 100, normalized fluorescence change, values below 0.05 threshold given as 0
[10] = ligand concentration 1 (unit not given), threshold 0.05, below shown as 0
[11] = ligand concentration 10 (unit not given), threshold 0.05, below shown as 0
[12] = ligand concentration 100 (unit not given), threshold 0.05, below shown as 0

Row | Compound | activation at 1 µM (Drosophila OR10a; [1]) [%] | activation at 10 µM (Drosophila OR10a; [2]) [%] | activation at 100 µM (Drosophila OR10a; [3]) [%] | activation at 1 µM (Drosophila OR10a; [4]) [%] | activation at 10 µM (Drosophila OR10a; [5]) [%] | activation at 100 µM (Drosophila OR10a; [6]) [%] | activation at 1 µM (Drosophila OR85b) [%] | activation at 10 µM (Drosophila OR85b) [%] | activation at 100 µM (Drosophila OR85b) [%] | Average response (Drosophila OR85b; cc. 1 µM) | Average response (Drosophila OR85b; cc. 10 µM) | Average response (Drosophila OR85b; cc. 100 µM) | DF norm AVERAGE OR85b (Drosophila OR85b; [7]) | DF norm AVERAGE OR85b (Drosophila OR85b; [8]) | DF norm AVERAGE OR10a (Drosophila OR10a; [10]) | DF norm AVERAGE OR10a (Drosophila OR10a; [11]) | DF norm AVERAGE OR10a (Drosophila OR10a; [12]) | DF norm AVERAGE OR85b (Drosophila OR85b; [10]) | DF norm AVERAGE OR85b (Drosophila OR85b; [11]) | DF norm AVERAGE OR85b (Drosophila OR85b; [12]) | also measured
1 | C=C1CC/C=C(\C)CC[C@@H]2[C@@H]1CC2(C)C [(-)-trans-caryophyllene] | 14 | 20 | 6.61 | 14 | 20 | 6.61 | 0 | 0 | 0 | 0.00 | 0.00 | 0.0238 | 0 | 0 | – | – | – | – | – | – | DF norm AVERAGE OR85b (Drosophila OR85b; [9]): 0
2 | C=CCc1ccc(O)c(OC)c1 [eugenol] | 8.49 | 6 | 0 | 8.49 | 6 | 0 | 0 | 0 | 9 | 0.00 | 0.0188 | 0.09 | – | – | 0.08485 | 0.05743 | 0 | 0 | 0 | 0.09022 | –
3 | CCCCC(C)O (stereo not shown) [2-hexanol] | 2.54 | 0 | 0 | 0 | 0 | 0 | 0 | 0 | 0 | 0.05 | 0.00 | 0.00 | 0 | 0 | – | – | – | – | – | – | DF norm AVERAGE OR10a (Drosophila OR10a): 0; DF norm AVERAGE OR85b (Drosophila OR85b; [9]): 0
4 | CC(=O)OCC(C)C [isobutyl acetate] | – | – | – | 6.57 | 0 | 18 | 0 | 0 | 0 | 0.044 | 0.00 | 0.03 | – | – | 0.06574 | 0 | 0.1821 | 0 | 0 | 0 | activation at 1 µM (Drosophila OR10a; HEK293, read-out: OR10a Average response (VUAA1-normalized), 1 μM VOC, 50 μM VUAA1 = 1, responses not exceeding 0.05 considered 0): 7%; activation at 10 µM (Drosophila OR10a; HEK293, read-out: OR10a Average response (VUAA1-normalized), 10 μM VOC, 50 μM VUAA1 = 1, responses not exceeding 0.05 considered 0): 5%; activation at 100 µM (Drosophila OR10a; HEK293, read-out: OR10a Average response (VUAA1-normalized), 100 μM VOC, 50 μM VUAA1 = 1, responses not exceeding 0.05 considered 0): 18%
5 | CC/C=C/CCO [e3-hexenol] | – | – | – | – | – | – | – | – | – | 0.00 | 0.00 | 0.0284 | – | – | 0 | 0 | 0.07404 | 0 | 0 | 0 | OR10a Average response (VUAA1-normalized) (Drosophila OR10a; 1 μM VOC, 50 μM VUAA1 = 1, responses not exceeding 0.05 considered 0): 0.0153; OR10a Average response (VUAA1-normalized) (Drosophila OR10a; 10 μM VOC, 50 μM VUAA1 = 1, responses not exceeding 0.05 considered 0): 0.00; OR10a Average response (VUAA1-normalized) (Drosophila OR10a; 100 μM VOC, 50 μM VUAA1 = 1, responses not exceeding 0.05 considered 0): 0.074
